Source: patent US20050054559A1, “Compounds for sustained release of orally delivered drugs” (priority 2000, published 2005)
Like-named read-outs stand apart in the source and are kept apart here. Square brackets hold non-standard residues; d marks the D form. Peptide text beside a SMILES is read from it. * marks the point of attachment. Bn = c1ccc(C*)cc1

Assays:
[1] = target: T1, hPEPT2 (Homo sapiens, UniProt Q16348); experiment: Electrogenic transport in Xenopus oocytes expressing hPEPT2; type: cell-based; conditions: test compound 1 mM, relative to Gly-Sar
T1 sequence (Q16348 1-729): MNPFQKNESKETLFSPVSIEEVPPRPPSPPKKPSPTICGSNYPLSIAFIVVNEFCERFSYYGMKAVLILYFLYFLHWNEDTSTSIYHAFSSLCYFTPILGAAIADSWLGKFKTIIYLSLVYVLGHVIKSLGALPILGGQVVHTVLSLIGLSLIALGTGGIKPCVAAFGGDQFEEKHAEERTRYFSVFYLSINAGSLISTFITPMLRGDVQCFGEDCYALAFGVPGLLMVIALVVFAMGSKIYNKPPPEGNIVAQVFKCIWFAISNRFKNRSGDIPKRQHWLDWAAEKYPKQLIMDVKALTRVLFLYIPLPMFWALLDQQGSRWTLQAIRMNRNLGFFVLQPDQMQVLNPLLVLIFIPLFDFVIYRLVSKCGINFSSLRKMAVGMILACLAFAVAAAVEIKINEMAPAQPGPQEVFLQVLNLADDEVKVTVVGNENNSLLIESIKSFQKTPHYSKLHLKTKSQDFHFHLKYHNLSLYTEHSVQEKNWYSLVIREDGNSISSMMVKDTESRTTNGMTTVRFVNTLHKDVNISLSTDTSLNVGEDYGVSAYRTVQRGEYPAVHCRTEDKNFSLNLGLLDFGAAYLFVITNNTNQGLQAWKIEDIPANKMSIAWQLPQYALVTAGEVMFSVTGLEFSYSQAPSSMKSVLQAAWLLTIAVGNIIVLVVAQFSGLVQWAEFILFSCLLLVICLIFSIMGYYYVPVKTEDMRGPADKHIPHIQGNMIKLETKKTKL
Source text: (§1) RNA preparation: Rat and human PEPT1 and PEPT2 transporter cDNAs were subcloned into a modified pGEM plasmid that contains 5′ and 3′ untranslated sequences from the Xenopus β-actin gene. These sequences increase RNA stability and protein expression. Plasmid cDNA was linearized and used as template for in vitro transcription (Epicentre Technologies transcription kit, 4:1 methylated:non-methylated GTP).
(§2) Xenopus oocyte isolation. Xenopus laevis frogs were anesthetized by immersion in Tricaine ([…] in deionized water) for 15 min. Oocytes were removed and digested in frog ringer solution (90 mM NaCl, 2 mM KCl, 1 mM MgCl2, 10 mM NaHEPES, pH 7.45, no CaCl2) with 1 mg/mL collagenase (Worthington Type 3) for 80-100 min with shaking. The oocytes were washed 6 times, and the buffer changed to frog ringer solution containing CaCl2 (1.8 mM). Remaining follicle cells were removed if necessary. Cells were incubated at 16° C., and each oocyte injected with […] RNA in […] solution.
(§3) Electrophysiology measurements. Transport currents were measured 2-14 days after injection, using a standard two-electrode electrophysiology set-up (Geneclamp 500 amplifier, Digidata 1320/PCLAMP software and ADInstruments hardware and software were used for signal acquisition). Electrodes ([…]) were microfabricated using a Sutter Instrument puller and filled with 3M KCl. The bath was directly grounded (transporter currents were less than 0.3 μA). Bath flow was controlled by an automated perfusion system (ALA Scientific Instruments, solenoid valves).
(§4) For transporter pharmacology, oocytes were clamped at −60 to −90 mV, and continuous current measurements acquired using PowerLab Software and an ADInstruments digitizer. Current signals were lowpass filtered at 20 Hz and acquired at 4-8 Hz. All bath and drug-containing solutions were frog ringers solution containing CaCl2. Drugs were applied for 10-30 seconds until the induced current reached a new steady-state level, followed by a control solution until baseline currents returned to levels that preceded drug application. The difference current (baseline subtracted from peak current during drug application) reflected the net movement of charge resulting from electrogenic transport and was directly proportional to tranport rate. Recordings were made from a single oocyte for up to 60 min, enabling 30-40 separate compounds to be tested per oocyte. […] To compare results between oocytes expressing different levels of transport activity, a saturating concentration of glycyl-sarcosine (1 mM) was used as a common reference to normalize results from test compounds. Using this normalization procedure Vmax (i.e. maximal induced current) for different compounds tested on different oocytes could be compared.

[2] = target: T2, hPEPT1 (Homo sapiens, UniProt P46059); experiment: Electrogenic transport in Xenopus oocytes expressing hPEPT1; type: cell-based; conditions: for % Max. (Gly-Sar): hPEPT1-expressing oocytes, test compound 1 mM, relative to Gly-Sar; for transport by hPEPT1 (in words): summary of Example 34
T2 sequence (P46059 1-708): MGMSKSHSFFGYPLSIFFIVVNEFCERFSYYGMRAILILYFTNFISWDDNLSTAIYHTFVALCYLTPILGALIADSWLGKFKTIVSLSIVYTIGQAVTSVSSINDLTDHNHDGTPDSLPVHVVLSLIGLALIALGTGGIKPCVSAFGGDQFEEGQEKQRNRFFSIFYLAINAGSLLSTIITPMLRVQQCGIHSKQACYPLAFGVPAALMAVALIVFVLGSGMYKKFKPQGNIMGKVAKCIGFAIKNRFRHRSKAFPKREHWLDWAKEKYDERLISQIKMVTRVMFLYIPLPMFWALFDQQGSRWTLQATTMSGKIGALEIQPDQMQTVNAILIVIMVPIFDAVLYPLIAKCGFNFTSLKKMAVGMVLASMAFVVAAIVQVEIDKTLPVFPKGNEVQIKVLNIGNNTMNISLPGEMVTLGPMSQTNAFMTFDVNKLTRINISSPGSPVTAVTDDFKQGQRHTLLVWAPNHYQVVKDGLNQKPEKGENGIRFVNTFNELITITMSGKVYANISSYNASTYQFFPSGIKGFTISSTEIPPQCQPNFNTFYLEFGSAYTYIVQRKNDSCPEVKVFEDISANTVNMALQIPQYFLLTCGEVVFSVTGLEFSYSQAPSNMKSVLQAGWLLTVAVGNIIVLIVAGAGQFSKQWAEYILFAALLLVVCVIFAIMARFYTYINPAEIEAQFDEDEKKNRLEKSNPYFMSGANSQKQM
Source text: as §1, §2, §3, §4

[3] = in rats; Salach et al, Pharm. Res. 1994; cited from earlier work
[4] = target: T3, IBAT (Homo sapiens, UniProt Q12908); experiment: Inhibition of radiolabeled taurocholate uptake in IBAT-transfected CHO cells; type: cell-based; set-up: expressed in transfected cells; host or cells: CHO cells; conditions: radiolabeled competition assay in transporter-expressing CHO cells
Protocol: (§5) CHO cells transfected with either the IBAT or LBAT transporter were seeded into 96-well microtiter plates at 100,000 cells/well in 100 μL DMEM containing 10% serum, glutamine and Penstrep. After overnight incubation the media was removed and test compound (25 μL) added at 2× the final desired concentration. Tritiated taurocholate (50,000 CPM/well) was diluted with cold substrate to a final concentration of 5 μM and 25 μL/well of this mixture was added to the plate. After incubating for 1 h at room temperature the solution was removed and the plate washed 4× with PBS at 4° C. 200 μL/well of scintillant is added and the plate then read in a Wallac microbeta counter. The inhibition data is processed by standard methods to calculate an inhibition constant Ki for the test compound.

[5] = target: T3, IBAT; experiment: Electrogenic transport in Xenopus oocytes expressing IBAT; type: cell-based; conditions: for % Max. (GDC): relative to glycodeoxycholate
Source text: as §1, with “Human IBAT” for “Rat”, “LBAT Transporter” for “human PEPT1 and PEPT2 transporter”
as §2, §3
For transporter pharmacology, oocytes were clamped at −60 to −90 mV, and continuous current measurements acquired using PowerLab Software and an ADInstruments digitizer. Current signals were lowpass filtered at 20 Hz and acquired at 4-8 Hz. All bath and drug-containing solutions were frog ringers solution containing CaCl2. Drugs were applied for 10-30 seconds until the induced current reached a new steady-state level, followed by a control solution until baseline currents returned to levels that preceded drug application. The difference current (baseline subtracted from peak current during drug application) reflected the net movement of charge resulting from electrogenic transport and was directly proportional to tranport rate. Recordings were made from a single oocyte for up to 60 min, enabling 30-40 separate compounds to be tested per oocyte. […]. Using this normalization procedure Vmax (i.e. maximal induced current) for different compounds tested on different oocytes could be compared.

[6] = target: T4, LBAT (Homo sapiens, UniProt Q14973); experiment: Inhibition of radiolabeled taurocholate uptake in LBAT-transfected CHO cells; type: cell-based; conditions: radiolabeled competition assay in transporter-expressing CHO cells
T4 construct: expressed in transfected cells; host or cells: CHO cells
Protocol: as §5

[7] = Pharmacokinetics in rats following oral administration (Examples 38 and 40); conditions: male, Sprague-Dawley, rat, in vivo, 25 mg/kg
Protocol: (§6) The pharmacokinetics of the prodrug (4) were examined in rats. Three groups of four male Sprague-Dawley rats (approx 200 g) with jugular cannulae each received one of the following treatments: A) a single bolus intravenous injection of gabapentin (25 mg/kg, as a solution in water); B) a single oral dose of gabapentin (25 mg/kg, as a solution in water) administered by oral gavage; C) a single oral dose of (4) (85.25 mg/kg, as a solution in water) administered by oral gavage. Animals were fasted overnight prior to dosing and until 4 hours post-dosing. Serial blood samples were obtained over 24 hours following dosing and blood was processed for plasma by centrifugation. Plasma samples were stored at −80° C. until analyzed. Concentrations of (4) or gabapentin in plasma samples were determined by LC/MS/MS as described in Example 35. Plasma (50 μL) was precipitated by addition of […] of methanol and supernatent was injected directly onto the LC/MS/MS system. The method was linear for gabapentin over the concentration range 0.001 to 20 ng/mL and for (4) over the concentration range 0.01 to 10 ng/mL.
as §6, with “prodrug Cholyl-Phe-Gabapentin (7g)” for “prodrug (4)”, “of (7g) (103.5” for “of (4) (85.25”, “of (7g)” for “of (4)”, “or (2)” for “or gabapentin”, “described above.” for “described in Example 35.”, “system.” for “system. The method was linear for gabapentin over the concentration range 0.001 to 20 ng/mL and for (4) over the concentration range 0.01 to 10 ng/mL.”

T3 sequence (Q12908 whole entry): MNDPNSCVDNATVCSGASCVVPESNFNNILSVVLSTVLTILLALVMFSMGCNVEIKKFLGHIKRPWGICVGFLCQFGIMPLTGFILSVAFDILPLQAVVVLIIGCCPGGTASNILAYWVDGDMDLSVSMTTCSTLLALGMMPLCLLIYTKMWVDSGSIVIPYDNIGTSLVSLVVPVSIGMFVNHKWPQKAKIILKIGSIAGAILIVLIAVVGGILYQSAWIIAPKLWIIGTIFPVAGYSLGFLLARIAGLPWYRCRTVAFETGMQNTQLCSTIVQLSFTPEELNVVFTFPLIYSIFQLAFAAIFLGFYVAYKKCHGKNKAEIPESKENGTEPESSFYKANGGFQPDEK
T4 sequence (Q14973 whole entry): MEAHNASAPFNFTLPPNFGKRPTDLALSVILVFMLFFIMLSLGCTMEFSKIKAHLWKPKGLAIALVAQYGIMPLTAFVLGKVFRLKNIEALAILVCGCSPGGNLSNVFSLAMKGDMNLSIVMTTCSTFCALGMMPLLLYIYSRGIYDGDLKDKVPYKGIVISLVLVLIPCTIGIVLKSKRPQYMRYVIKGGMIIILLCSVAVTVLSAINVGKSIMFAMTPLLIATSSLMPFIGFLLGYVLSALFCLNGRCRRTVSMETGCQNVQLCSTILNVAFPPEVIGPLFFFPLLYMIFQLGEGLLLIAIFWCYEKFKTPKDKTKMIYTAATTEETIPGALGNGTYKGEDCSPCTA

Compound: N[C@@H](CCC(=O)O)C(=O)N[C@@H](COCc1ccccc1)C(=O)O [(28), H-Glu-Ser(Bzl)-OH] (H-Glu-Ser(Bn)-OH)
- % Max. (Gly-Sar) [1]: 82%
- % Max. (Gly-Sar) [2]: 58%
- transport by hPEPT1 (in words) [2]: efficient substrates

Compound: N-Phthaloylglycine
- half-life [3]: ~0.167 h

Compound: N[C@@H](CCC(=O)O)C(=O)N[C@H](COCc1ccccc1)C(=O)O [(35), H-Glu-D-Ser(Bzl)-OH] (H-Glu-[dS](Bn)-OH)
- % Max. (Gly-Sar) [1]: 0%
- % Max. (Gly-Sar) [2]: 1%

Compound: CC(CCC(=O)NC(Cc1ccccc1)C(=O)NCC1(CC(=O)O)CCCCC1)C1CCC2C3C(O)CC4CC(O)CCC4(C)C3CC(O)C12C (centres unmarked) [(7g), Cholyl-Phe-Gabapentin]
- IC50 [4]: 92 µM
- EC50 [5]: 140 µM
- % Max. (GDC) [5]: 28%
- IC50 [6]: 0.5 µM

Compound: N[C@@H](CC(=O)O)C(=O)N[C@@H](CSCc1ccccc1)C(=O)O [(30), H-Asp-Cys(Bzl)-OH] (H-Asp-Cys(Bn)-OH)
- % Max. (Gly-Sar) [1]: 78%
- % Max. (Gly-Sar) [2]: 55%
- transport by hPEPT1 (in words) [2]: efficient substrates

Compound: Cl.NCC1(CC(=O)O)CCCCC1 [gabapentin, 1-aminomethyl-1-cyclohexaneacetic acid hydrochloride, reference compound]
- bioavailability [7]: 87 ± 18%
- Tmax ([7]; po): 2.8 ± 2.5 h
- half-life ([7]; po): 2.4 ± 0.5 h

Compound: N[C@@H](CC(=O)O)C(=O)N[C@H](COCc1ccccc1)C(=O)O [(37), H-Asp-D-Ser(Bzl)-OH] (H-Asp-[dS](Bn)-OH)
- % Max. (Gly-Sar) [1]: 0%
- % Max. (Gly-Sar) [2]: 1%

Compound: N[C@@H](CCC(=O)O)C(=O)N[C@@H](CSCc1ccccc1)C(=O)O [(27), H-Glu-Cys(Bzl)-OH] (H-Glu-Cys(Bn)-OH)
- % Max. (Gly-Sar) [1]: 56%
- % Max. (Gly-Sar) [2]: 41%
- transport by hPEPT1 (in words) [2]: efficient substrates

Compound: N[C@@H](CC(=O)O)C(=O)N[C@H](CSCc1ccccc1)C(=O)O [(36), H-Asp-D-Cys(Bzl)-OH] (H-Asp-[dC](Bn)-OH)
- % Max. (Gly-Sar) [1]: 0%
- % Max. (Gly-Sar) [2]: 2%

Compound: CC(CCC(=O)NC(Cc1ccc(O)c(O)c1)C(=O)O)C1CCC2C3C(O)CC4CC(O)CCC4(C)C3CC(O)C12C (centres unmarked) [(20), Cholyl-Dopa]
- IC50 [4]: 83 µM
- % Max. (GDC) [5]: 0%
- IC50 [6]: 5 µM

Compound: CC(CCC(=O)NCC(=O)NCC1(CC(=O)O)CCCCC1)C1CCC2C3C(O)CC4CC(O)CCC4(C)C3CC(O)C12C (centres unmarked) [(7a), Cholyl-Gly-Gabapentin]
- % Max. (GDC) [5]: 67%

Compound: N[C@@H](CCC(=O)O)C(=O)N[C@H](CSCc1ccccc1)C(=O)O [(34), H-Glu-D-Cys(Bzl)-OH] (H-Glu-[dC](Bn)-OH)
- % Max. (Gly-Sar) [1]: 0%
- % Max. (Gly-Sar) [2]: 1%

Compound: C[C@H](CCC(=O)N[C@@H](Cc1ccc2oc(=O)oc2c1)C(=O)O)[C@H]1CC[C@H]2[C@@H]3[C@H](O)C[C@@H]4C[C@H](O)CC[C@]4(C)[C@H]3C[C@H](O)[C@]12C [(23), Cholyl-Dopa-(3,4-carbonate)]
- IC50 [4]: 74 µM
- % Max. (GDC) [5]: 25%
- IC50 [6]: 1.8 µM
